{"source": "patent US7598029B2", "about": "“Method for identifying HIV-1 protease inhibitors with reduced metabolic affects” (Bristol-Myers Squibb Company, priority 2006, dated 2009)", "key": {"cathepsin E": {"target": "T1, cathepsin E (Homo sapiens, UniProt P14091)", "T1 construct": "purchased R&D Systems Inc", "T1 sequence (P14091 54-396)": "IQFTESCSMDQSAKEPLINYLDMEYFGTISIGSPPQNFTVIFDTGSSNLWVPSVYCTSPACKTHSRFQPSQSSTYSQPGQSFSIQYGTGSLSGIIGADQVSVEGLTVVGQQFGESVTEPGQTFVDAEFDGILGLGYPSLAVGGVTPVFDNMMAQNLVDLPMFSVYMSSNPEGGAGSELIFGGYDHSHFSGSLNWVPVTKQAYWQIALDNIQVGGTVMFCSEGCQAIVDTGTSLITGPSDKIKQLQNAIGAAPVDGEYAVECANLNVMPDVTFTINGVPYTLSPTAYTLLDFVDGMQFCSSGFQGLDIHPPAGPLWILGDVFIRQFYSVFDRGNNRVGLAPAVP", "experiment": "Protease digestion of resistin by cathepsin E with HIV-1 protease inhibitors, SDS-PAGE", "assay_type": "biochemical", "details": "for inhibition of cleavage of resistin by cathepsin E: 1 ug alkylated and reduced resistin, 0.1 ug cathepsin E", "procedure": "(§1) Atazanavir was synthesized by and provided in pure form from the Chemistry Division of Bristol-Myers Squibb Co. All compounds were dissolved in 100% DMSO (Sigma). The final concentration of DMSO was 0.2% in experiments that included a protease inhibitor.\n(§2) Recombinant Proteins: Recombinant human and mouse resistin were obtained from Santa Cruz Biotech. Recombinant cathepsin D and cathepsin E were obtained from R&D Systems Inc. Recombinant HIV-1 protease was obtained from Protein One. Recombinant renin was obtained from Cayman Chemical and recombinant trypsin was from Promega.\n(§3) Alkylation/Reduction of Cysteine Residues: Lyophilized resistin (24 micrograms) was resuspended in 50 ul of fresh UA buffer (8 M urea, 0.4 M ammonium bicarbonate) and 5 ul of 45 mM DTT. The mixture was then incubated at 50° C. for 15 min, followed by addition of 5 ul of 0.1 M iodoacetamide. The reaction was then incubated for an additional 15 min in the dark at room temperature, followed by the addition of 140 ul of H20.\n(§4) Preparation of Proteases: Lyophilized cathepsin D (10 ug) was resuspended in 100 ul H20. Cathepsin D was activated prior to use by incubating at 20 ng/ul in CathD buffer (100 mM NaOAc, 200 mM NaCl, pH 4.7) for 30 min at 37° C. Lyophilized cathepsin E (10 ug) was resuspended in 100 ul of reconstitution buffer (25 mM MES, 0.15 M NaCl, pH 6.5). Cathepsin E was activated prior to use by incubating at 20 ng/ul in CathE buffer (100 mM NaOAc, 100 mM NaCl, pH 4.7) for 30 min at room temperature. Renin was diluted to 20 ng/ul in renin buffer (50 mM Tris-HCl, pH 8, 100 mM NaCl) prior to use. Lyophilized trypsin (20 ug) was resuspended in 500 ul reconstitution buffer provided by the manufacturer (Promega). Trypsin was activated prior to use by incubating for 15 min at 30° C. HIV-1 protease was used directly from the manufacturer.\n(§5) Protease Digestion Experiments: In all protease digestion reactions, 1 ug of alkylated and reduced resistin was incubated with either 1 ug HIV-1 protease, 0.1 ug cathepsin D, 0.1 ug cathepsin E or 0.1 ug trypsin. HIV-1 protease digestion was performed in HIV-1 PR buffer (50 mM MES (pH 6), 100 mM NaCl). Trypsin digestion was performed in TE buffer (10 mM Tris (pH 8), 0.1 mM EDTA (pH 8)). The respective reaction buffers for cathepsin D, cathepsin E and renin are listed above under “Preparation of proteases”. […] All protease digestion experiments were incubated for 24 hr at 37° C. with the exception of experiments containing cathepsin E, which were incubated at room temperature. Reactions were quenched in LDS loading dye (Invitrogen) containing reducing agent (Invitrogen). Reactions were subsequently heated at 70° C. for 5 min prior analysis by SDS-PAGE.\n(§6) SDS-PAGE Analysis: Cleavage products were resolved using 4-12% Bis-Tris NUPAGE® Gels (Invitrogen). Gels were run at 200 V for 20 min in MES buffer. Protein bands were visualized by staining with Gel Code reagent (Pierce)."}, "cathepsin D": {"target": "T2, cathepsin D (Homo sapiens, UniProt P07339)", "T2 construct": "purchased R&D Systems Inc", "T2 sequence (P07339 65-412)": "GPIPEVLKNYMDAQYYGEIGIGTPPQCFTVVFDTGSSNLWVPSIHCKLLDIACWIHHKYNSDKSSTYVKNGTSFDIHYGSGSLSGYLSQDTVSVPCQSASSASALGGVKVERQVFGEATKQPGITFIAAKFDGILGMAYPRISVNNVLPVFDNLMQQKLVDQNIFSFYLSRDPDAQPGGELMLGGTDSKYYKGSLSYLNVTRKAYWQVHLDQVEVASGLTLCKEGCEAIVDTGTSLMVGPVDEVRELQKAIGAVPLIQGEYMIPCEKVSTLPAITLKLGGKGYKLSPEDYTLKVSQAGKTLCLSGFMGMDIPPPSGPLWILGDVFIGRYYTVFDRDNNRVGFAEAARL", "experiment": "Protease digestion of resistin by cathepsin D with HIV-1 protease inhibitors, SDS-PAGE", "assay_type": "biochemical", "details": "for inhibition of cleavage of resistin by cathepsin D: 1 ug alkylated and reduced resistin, 0.1 ug cathepsin D", "procedure": "as §1, §2, §3, §4, §5, §6"}, "[1]": {"details": "human, in vivo; cited from earlier work"}}, "data": [{"smiles": "COC(=O)N[C@H](C(=O)N[C@@H](Cc1ccccc1)[C@@H](O)CN(Cc1ccc(-c2ccccn2)cc1)NC(=O)[C@@H](NC(=O)OC)C(C)(C)C)C(C)(C)C", "note": "[atazanavir]", "values": [{"measurement": "inhibition of cleavage of resistin by cathepsin E", "setting": "cathepsin E; 24 hr at room temperature", "value": "not detectably inhibited"}, {"measurement": "inhibition of cleavage of resistin by cathepsin D", "setting": "cathepsin D; 24 hr at 37° C.", "value": "not detectably inhibited"}, {"measurement": "change in fasting LDL cholesterol, total cholesterol, and fasting triglycerides", "setting": "[1]", "value": "either no change or decreases"}]}, {"smiles": "CC(C)(C)NC(=O)[C@@H]1CN(Cc2cccnc2)CCN1C[C@@H](O)C[C@@H](Cc1ccccc1)C(=O)N[C@H]1c2ccccc2C[C@H]1O", "note": "[indinavir]", "values": [{"measurement": "inhibition of cleavage of resistin by cathepsin E", "setting": "cathepsin E; 24 hr at room temperature", "value": "not"}, {"measurement": "inhibition of cleavage of resistin by cathepsin D", "setting": "cathepsin D; 24 hr at 37° C.", "value": "not"}]}, {"smiles": "Cc1cccc(C)c1OCC(=O)N[C@@H](Cc1ccccc1)[C@@H](O)C[C@H](Cc1ccccc1)NC(=O)[C@H](C(C)C)N1CCCNC1=O", "note": "[lopinovir]", "values": [{"measurement": "correlation of lipid abnormalities with plasma concentrations", "setting": "[1]", "value": "did not correlate"}]}, {"smiles": "Cc1c(O)cccc1C(=O)N[C@@H](CSc1ccccc1)[C@H](O)CN1C[C@H]2CCCC[C@H]2C[C@H]1C(=O)NC(C)(C)C", "note": "[nelfinavir]", "values": [{"measurement": "inhibition of cleavage of resistin by cathepsin E", "setting": "cathepsin E; 24 hr at room temperature", "value": "not"}, {"measurement": "inhibition of cleavage of resistin by cathepsin D", "setting": "cathepsin D; 24 hr at 37° C.", "value": "not"}, {"measurement": "association with HIV-1 protease inhibitor induced metabolic abnormalities", "setting": "[1]", "value": "are not"}]}, {"smiles": "CC(C)c1nc(CN(C)C(=O)N[C@H](C(=O)N[C@@H](Cc2ccccc2)C[C@H](O)[C@H](Cc2ccccc2)NC(=O)OCc2cncs2)C(C)C)cs1", "note": "[ritonavir]", "values": [{"measurement": "concentration at which cleavage of resistin by cathepsin E was detectably inhibited", "setting": "cathepsin E; 24 hr at room temperature, FIG. 2", "value": 10, "unit": "µM"}, {"measurement": "concentration at which cleavage of resistin by cathepsin E was detectably inhibited", "setting": "cathepsin E; Example 1, FIG. 2, 24 hr at room temperature", "value": 10, "unit": "µM"}, {"measurement": "concentration at which cathepsin E was fully inhibited", "setting": "cathepsin E; Example 1, resistin cleavage", "value": 30, "unit": "µM"}, {"measurement": "concentration at which cathepsin E was fully inhibited", "setting": "cathepsin E; resistin cleavage, 24 hr at room temperature", "value": 30, "unit": "µM"}, {"measurement": "concentration at which cleavage of resistin by cathepsin D was detectably inhibited", "setting": "cathepsin D; 24 hr at 37° C., FIG. 2", "value": 30, "unit": "µM"}, {"measurement": "concentration at which cleavage of resistin by cathepsin D was detectably inhibited", "setting": "cathepsin D; Example 1, FIG. 2, 24 hr at 37° C.", "value": 30, "unit": "µM"}, {"measurement": "concentration at which cathepsin D was fully inhibited", "setting": "cathepsin D; Example 1, resistin cleavage", "value": 100, "unit": "µM"}, {"measurement": "concentration at which cathepsin D was fully inhibited", "setting": "cathepsin D; resistin cleavage, 24 hr at 37° C.", "value": 100, "unit": "µM"}, {"measurement": "elevated plasma cholesterol and plasma triglyceride levels", "setting": "[1]", "value": "significantly more pronounced"}, {"measurement": "frequency of hypertriglyceridaemia", "setting": "[1]", "value": "more frequent"}, {"measurement": "hypercholesterolemia", "setting": "[1]", "value": "observed"}, {"measurement": "hypertriglyceridaemia", "setting": "[1]", "value": "severe hypertriglyceridaemia"}]}, {"smiles": "CC(C)(C)NC(=O)[C@@H]1C[C@@H]2CCCC[C@@H]2CN1C[C@@H](O)[C@H](Cc1ccccc1)NC(=O)[C@H](CC(N)=O)NC(=O)c1ccc2ccccc2n1", "note": "[saquinavir]", "values": [{"measurement": "inhibition of cleavage of resistin by cathepsin E", "setting": "cathepsin E; 24 hr at room temperature", "value": "prevented"}, {"measurement": "inhibition of cleavage of resistin by cathepsin D", "setting": "cathepsin D; 24 hr at 37° C.", "value": "prevented"}, {"measurement": "association with HIV-1 protease inhibitor induced metabolic abnormalities", "setting": "[1]", "value": "known to be associated"}]}]}
